According to patent publication US20190262300A1, “COMPOSITION FOR PREVENTING OR TREATING PSORIASIS CONTAINING MONOACETYL DIACYLGLYCEROL COMPOUND” (ENZYCHEM LIFESCIENCES CORPORATION, priority 2016, published 2019):

How the values were obtained:
Assay type in all cases: in vivo, Balb/c mice
[1] = test system: psoriasis-induced mouse models (IMQ); test: Keratinization and thickness of back skin of IMQ-induced psoriasis mice; settings: vs psoriasis-induced group
Excerpt: (§1) In order to confirm the preventive and therapeutic effects of psoriasis by 1-palmitoyl-2-linoleoyl-3-acetylglycerol (EC-18 or PLAG), imiquimod (hereinafter, referred to as IMQ), which is commonly used to induce skin inflammation i.e., psoriasis, such as infiltration of immune cells, epidermal hyperplasia, etc., was used as a ligand for TLR7 and TLR8 to carry out an experiment using psoriasis-induced mouse models. As an experiment model, 6 to 8-week-old female Balb/c-based mice (KOATECH, Pyeongtaek, Korea) were maintained under a specific pathogen free (SPF) environment and used. PLAG (ENZYCHEM LIFESCIENCES, Korea) was prepared before in vivo or in vitro treatment. Also, statistical analysis was performed using a paired t-test.
Mice were randomly divided into three groups: control group, psoriasis-induced group, and PLAG group. As the IMQ, Aldara cream (3M Health Care Limited, UK) containing 5% of IMQ was used. […]
In order to investigate whether PLAG prevents the progression of psoriasis, psoriasis was induced using IMQ cream (Aldara cream) as in Example 1. […] Subsequently, for the measurement of thickness of back skin, the back skin was removed, and the thickness of the removed back skin was measured using a caliper. The thickness of the measured back skin is shown in the graph of FIG. 3(B).

[2] = test system: psoriasis-induced mouse models (IMQ); test: Size and weight of spleen in IMQ-induced psoriasis mice; settings: PLAG 250 mg/kg/day oral day 0 to day 4 with Aldara cream 40 mg/day, vs control group
Excerpt: as §1
(§2) Mice were randomly divided into three groups: control group, psoriasis-induced group, and PLAG group. As the IMQ, Aldara cream (3M Health Care Limited, UK) containing 5% of IMQ was used.
For 5 days from day 0 to day 4, the control group was treated with vaseline (Unilever, UK) and PBS, the psoriasis-induced group was treated with Aldara cream and PBS, and the PLAG group was treated with Aldara cream and PLAG. […]
The size of the spleen removed from the mice of Example 1 was measured using a ruler, and the weight was measured using a scale.

[3] = test system: psoriasis-induced mouse models (IMQ); test: H&E histology of back skin (IMQ-induced chronic inflammatory skin disorder); settings: PLAG 250 mg/kg/day oral day 0 to day 4 with Aldara cream 40 mg/day
Excerpt: as §1, §2
(§3) For 5 days from day 0 to day 4, the control group was treated with vaseline (Unilever, UK) and PBS, the psoriasis-induced group was treated with Aldara cream and PBS, and the PLAG group was treated with Aldara cream and PLAG. Vaseline and Aldara cream were applied to the back of mice at a dose of 40 mg/day, and PBS and PLAG were orally administered at a dose of 250 mg/kg/day. On Day 5, which was the 6th day, the mice were sacrificed.
The thickness of the back skin of the mice of Example 1 was stained with the following H&E (Hematoxylin and Eosin) staining method, and histologically observed and evaluated under an optical microscope (Olympus, Tokyo, Japan) 5. The H&E staining method is as follows:
The back skin tissue of the mice was fixed in a 10% buffered formalin solution for 24 hours, embedded in paraffin and cut into 4 μm-thick sections. After removing paraffin and rehydrating the sections, the sections were stained with hematoxylin and eosin.

[4] = test system: neutrophil recruitment in the back skin; test: Immunohistochemical staining of neutrophil recruitment in back skin; settings: PLAG 250 mg/kg/day oral day 0 to day 4 with Aldara cream 40 mg/day
Excerpt: as §1, §2
as §3, with “sacrificed. […]” for “sacrificed.”

IL-17 = test: Immunohistochemical staining of IL-17 expression in IMQ-induced psoriatic skin; settings: PLAG 250 mg/kg/day oral day 0 to day 4 with Aldara cream 40 mg/day; back skin
Excerpt: as §1, §2
as §3, with “sacrificed. […]” for “sacrificed.”

Structure (SMILES): CCCCC/C=C\C/C=C\CCCCCCCC(=O)OC(COC(C)=O)COC(=O)CCCCCCCCCCCCCCC (racemic) [PLAG, 1-palmitoyl-2-linoleoyl-3-acetyl-rac-glycerol]
- thickness of the back skin (caliper) ([1]; PLAG 250 mg/kg/day oral day 0 to day 4 with Aldara cream 40 mg/day, day 5): significantly decreased
- keratosis on the back of the mice ([1]; PLAG 250 mg/kg/day oral day 0 to day 4 with Aldara cream (5% IMQ) 40 mg/day, photographed day 5): remarkably alleviated
- size of spleen ([2]; ruler): increased compared to the control group
- weight of spleen ([2]; scale): maintained the same as the weight of spleen of the control group
- hair follicles (H&E) [3]: present as in the control group
- neutrophils between the stratum corneum (H&E) [3]: not found
- thicknesses of the stratum corneum and the epidermis (H&E) ([3]; vs psoriasis-induced group): remarkably reduced
- level of neutrophil recruitment in back skin (NIMP-R14 immunohistochemistry) [4]: significantly lower than that in the psoriasis-induced group
- IL-17 expression in the skin blood vessels (immunohistochemistry) (IL-17): significantly inhibited
